Five compounds from patent US12714708B2, “Compounds with anti-tumor activity against cancer cells bearing HER2 exon 19 mutations” (Board of Regents, The University of Texas System, priority 2019, dated 2026) can be followed below.

SMILES strings stand for the structures.

Test [1] relates to Ba/F3 HER2 L755P mutant cells. Nature of the test: Cell Titer Glo cell viability, Ba/F3 cells expressing HER2 L755P. The test is classed as cell-based. The following applies: for inhibition of cell viability: Ba/F3 cells expressing HER2 L755P protein; for IC50: Mus musculus, BaF3, Ba/F3 HER2 L755P mutant cells. On the procedure: Ba/F3 cells expressing exon 19 point mutation L755P were generated.
Cell line generation and IL-3 deprivation: Ba/F3 cell line, was cultured in complete RPMI-1640 (R8758; Sigma Life Science) media supplemented with L-glutamine, 10% heat inactivated FBS (Gibco), 1% penicillin/streptomycin (Sigma Life Science), and 10 ng/ml mouse IL-3 (R&D systems) under sterile conditions. Stable cell lines were generated by retroviral transduction of Ba/F3 cell line for 12 hours. Retroviruses were generated by transfecting pBabe-Puro based vectors into the Phoenix 293T ampho packing cell line (Orbigen) using Lipofectamine 2000 (Invitrogen). 72 hours after transduction, 2 μg/ml puromycin (Invitrogen) was added to the media. After 5 days of selection, cells were stained with FITC-HER2 (Biolegend) and sorted via FACS. Cell lines were then grown in the absence of IL-3 for 15 days and cell viability was determined every 3 days using the Cell Titer Glo assay (Progema). Resulting stable cell lines were maintained in complete RPMI-1640 media described above without IL-3. […] To generate HER2 […] cell lines, cells were transduced with c.2264T>C (created from Bioinnovatise from pBabe-puro HER WT from Addgene (#40978)).
(§1) Cell viability assay and IC50 estimation: Cell viability was determined using the Cell Titer Glo assay (Promega) as previously described (Robichaux et al., 2018). Briefly, 2000-3000 cells per well were plated in 384-well plates (Greiner Bio-One) in technical triplicate. Cells were treated with seven different concentrations of tyrosine kinase inhibitors or vehicle alone at a final volume of 40 μL per well. After 3 days, 11 μL of Cell Titer Glo was added to each well. Plates were shaken for 15 minutes, and bioluminescence was determined using a FLUOstar OPTIMA multi-mode micro-plate reader (BMG LABTECH). Bioluminescence values were normalized to DMSO treated cells, and normalized values were plotted in GraphPad Prism using non-linear regression fit to normalized data with a variable slope. IC50 values were calculated by GraphPad Prism at 50% inhibition.
Background: Cellular ATP, detected with luciferase, serves as a proxy for viable cell number.

Another test deals with CW-2 colorectal cells. Briefly: Cell viability of CW-2 cells treated with inhibitors. The following applies: various concentrations, 72 hours (FIG. 6A). The test is classed as cell-based, human. As to the method:
A mouse study was performed with mice inoculated with CW-2 cells treated with poziotinib, afatinib, or neratinib. […] Thus, poziotinib, as well as structurally similar inhibitors, are potent inhibitors of HER2 exon 19 mutations and can be used as therapeutics to overcome de novo drug resistance.
as §1
Human cell lines: MCF10A cells were purchased from ATCC and were cultured in DMEM/F12 media supplemented with 1% penicillin/streptomycin, 5% horse serum (sigma), 20 ng/ml EGF, […] hydrocortisone, and 10 ug/ml insulin. […]

Test [2] deals with CW-2 cells (HER2 L755S) xenografts. Briefly: CW-2 cell line xenograft tumor growth study. The following applies: for Tukey's multiple comparisons test Summary: Poziotinib 5 mg/kg. The test is classed as in vivo, mice. On the procedure: In vivo xenograft studies: CW-2 cell line xenografts were created by injecting 1×10^6 cells in 50% matrigel into 6-week-old female nu/nu nude mice. When tumors reached 350 mm^3 mice were randomized into 4 groups: 20 mg/kg afatinib, 5 mg/kg poziotinib, 30 mg/kg neratinib, or vehicle control (0.5% Methylcellulose, 2% Tween-80 in dH2O). Tumor volumes were measured three times per week. Mice received drug Monday-Friday (5 days per week), but began dosing on Wednesday allowing for a 2-day holiday after the first 3 days of dosing.

The test system of test [3] is HER2 exon 19 mutant Ba/F3 cell lines. Nature of the test: Cell Titer Glo cell viability, Ba/F3 cell lines expressing HER2 exon 19 mutations. The test is classed as cell-based. As to the method:
In addition, several other HER2 exon 19 mutations including D769Y, D769N, D769H, L755S, and R678Q were tested for their sensitivity to different TKIs including poziotinib.
Cell viability of stable Ba/F3 cell lines expressing HER2 exon 19 mutations grown in IL-3 free conditions was measured for 14 days. Cell viability was determined every 3 days by the Cell Titer Glo assay (FIG. 4). […] Average IC50 values of Ba/F3 cells expressing L755S or L755P with indicated inhibitors were measured (FIG. 5C).
Cell line generation and IL-3 deprivation: Ba/F3 cell line, was cultured in complete RPMI-1640 (R8758; Sigma Life Science) media supplemented with L-glutamine, 10% heat inactivated FBS (Gibco), 1% penicillin/streptomycin (Sigma Life Science), and 10 ng/ml mouse IL-3 (R&D systems) under sterile conditions. Stable cell lines were generated by retroviral transduction of Ba/F3 cell line for 12 hours. Retroviruses were generated by transfecting pBabe-Puro based vectors into the Phoenix 293T ampho packing cell line (Orbigen) using Lipofectamine 2000 (Invitrogen). 72 hours after transduction, 2 μg/ml puromycin (Invitrogen) was added to the media. After 5 days of selection, cells were stained with FITC-HER2 (Biolegend) and sorted via FACS. Cell lines were then grown in the absence of IL-3 for 15 days and cell viability was determined every 3 days using the Cell Titer Glo assay (Progema). Resulting stable cell lines were maintained in complete RPMI-1640 media described above without IL-3. Cell line identity was confirmed by DNA fingerprinting via short tandem repeats using the PowerPlex 1.2 kit (Promega). Fingerprinting results were compared with reference fingerprints maintained by the primary source of the cell line. All cell lines were free of mycoplasma. […]
Cell viability assay and IC50 estimation: Cell viability was determined using the Cell Titer Glo assay (Promega) as previously described (Robichaux et al., 2018). […] Plates were shaken for 15 minutes, and bioluminescence was determined using a FLUOstar OPTIMA multi-mode micro-plate reader (BMG LABTECH). […]

Setting [4] is: Day 10, vs. Vehicle, Afatinib 20 mg/kg, Neratinib 30 mg/kg, two-way ANOVA of FIG. 6B.
The mark [5] stands for this setting: Day 13, vs. Vehicle, Afatinib 20 mg/kg, Neratinib 30 mg/kg, two-way ANOVA of FIG. 6B.

With `Cc1cc(C(=O)Nc2nc3cccc(Cl)c3n2[C@@H]2CCCCN(C(=O)/C=C/CN(C)C)C2)ccn1` [EGF-816], the “inhibition of cell viability” value in test [1] was “failed to inhibit cell viability”.
As for `CN(C)C/C=C/C(=O)Nc1cc2c(Nc3ccc(F)c(Cl)c3)ncnc2cc1O[C@H]1CCOC1` [afatinib], in test [1], the IC50 (commonly the point on the concentration scale where inhibition reaches its midpoint) is 13 nM. In other words, the double-digit nanomolar range.
As for `CS(=O)(=O)CCNCc1ccc(-c2ccc3ncnc(Nc4ccc(OCc5cccc(F)c5)c(Cl)c4)c3c2)o1` [lapatinib], the “inhibition of cell viability” value in test [1] is given as “failed to inhibit cell viability”.
Regarding `C=CC(=O)N1CCC(Oc2cc3c(Nc4ccc(Cl)c(Cl)c4F)ncnc3cc2OC)CC1` [poziotinib, 1-[4-[4-(3,4-dichloro-2-fluoroanilino)-7-methoxyquinazolin-6-yl]oxypiperidin-1-yl]prop-2-en-1-one], the “decrease in cell viability” value in the test on CW-2 colorectal cells was “highest decrease in cell viability”. Moreover, the “Tukey's multiple comparisons test Summary” value in test [2] (Day 10, vs. Afatinib (20 mg/kg)) is “ns”; in test [2] (setting [4]), “ns”; in test [2] (Day 13, vs. Afatinib (20 mg/kg)), “ns”; in test [2] (Day 13, vs. Neratinib (30 mg/kg), Afatinib 20 mg/kg) it was “ns”; in test [2] (setting [5]), “ns”; in test [2] (Day 15, vs. Afatinib (20 mg/kg)) it was “ns”. Moreover, the “Tukey's multiple comparisons test Summary” value in test [2] (Day 17, vs. Afatinib (20 mg/kg)) is reported as “ns”. The Tumor growth result in test [2] (mice inoculated with CW-2 cells, 5 mg/kg (FIG. 6C)) is reported as “significantly decreased”. In addition, the “inhibition of cell viability” value in test [1] was “inhibition of cell viability”. This compound also gave an IC50 in test [1] of 3 nM. Moreover, the “IC50 values as compared to the other inhibitors tested” value in test [3] (Ba/F3 cells expressing HER2 exon 19 mutations incl. L755S or L755P, 72 hours of drug treatment) was “lowest IC50 values”. Moreover, in test [3] (HER2 exon 19 mutants), the “concentrations inhibiting HER2 exon 19 mutants” value is “low nanomolar concentrations”. For the same compound, in test [3] (HER2 exon 19 mutations D769Y, D769N, D769H, L755S, R678Q (FIG. 3)), the “inhibition of growth of mutant cells” value is listed as “inhibited the growth of these mutant cells”.
For `CCOc1cc2ncc(C#N)c(Nc3ccc(OCc4ccccn4)c(Cl)c3)c2cc1NC(=O)/C=C/CN(C)C` [neratinib], the “Tukey's multiple comparisons test Summary” value in test [2] (setting [4]) is listed as “ns”; in test [2] (setting [5]) it was “ns”; in test [2] (Day 15, vs. Vehicle, Afatinib 20 mg/kg, Neratinib 30 mg/kg, two-way ANOVA of FIG. 6B), “ns”; in test [2] (Day 17, vs. Vehicle, Afatinib 20 mg/kg, Neratinib 30 mg/kg, two-way ANOVA of FIG. 6B) it was “ns”.
